From PubChem BioAssay AID248 (DTP/NCI, 2004)
Where “and” joins values, the source holds several entries; their conditions need not be identical. Identical values can stand only once. Toxic doses and inconclusive results are not listed. Rule as the data show it: active = T/C of 150% or more; inactive = T/C below 125%.

Tested on: L1210 leukemia ip in BDF1 mice, survival T/C
Assay: NCI In Vivo Anticancer Drug Screen. Data for tumor model L1210 Leukemia (intraperitoneal) in B6D2F1 (BDF1) mice
Settings: endpoint: mean survival time, higher = longer survival
Outline: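 Ratio derived from survival: compound-dosed mice over vehicle-dosed mice, all bearing a transplantable tumor.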

[1] = dose: 200.0 mg/kg/injection, schedule: Q01DX009 (ip), vehicle: saline
[2] = dose: 100.0 mg/kg/injection, schedule: Q01DX001 (ip), vehicle: saline
[3] = dose: 200.0 mg/kg/injection, schedule: Q01DX001 (ip), vehicle: saline
[4] = dose: 400.0 mg/kg/injection, schedule: Q01DX001 (ip), vehicle: saline

Measured: T/C

CC12CCCCC1CC/C(=C\c1ccco1)C2=O (centres undefined)
inactive: dose: 100.0 mg/kg/injection, schedule: Q01DX009 (ip), vehicle: saline 98 % of control | dose: 100.0 mg/kg/injection, schedule: Q04DX003 (ip), vehicle: saline 97 % of control | [1] 98 % of control | dose: 200.0 mg/kg/injection, schedule: Q04DX003 (ip), vehicle: saline 100 % of control | dose: 400.0 mg/kg/injection, schedule: Q01DX009 (ip), vehicle: saline 95 % of control | dose: 400.0 mg/kg/injection, schedule: Q04DX003 (ip), vehicle: saline 100 % of control

CC(C)=CCC(C#N)(CCN1CCCCC1)c1cccc2ccccc12 (centres undefined)
inactive: dose: 12.5 mg/kg/injection, schedule: Q04DX003 (ip), vehicle: Klucel (hydroxypropylcellulose) (HPC) 99 % of control | dose: 25.0 mg/kg/injection, schedule: Q04DX003 (ip), vehicle: Klucel (hydroxypropylcellulose) (HPC) 103 % of control | dose: 50.0 mg/kg/injection, schedule: Q04DX003 (ip), vehicle: Klucel (hydroxypropylcellulose) (HPC) 100 % of control

CCCNC(=O)C1C2CCC(C2)C1C(=O)NCCC (centres undefined)
inactive: dose: 100.0 mg/kg/injection, schedule: Q04DX003 (ip), vehicle: saline with Tween-80 96 % of control | dose: 200.0 mg/kg/injection, schedule: Q04DX003 (ip), vehicle: saline with Tween-80 96 % of control | dose: 400.0 mg/kg/injection, schedule: Q04DX003 (ip), vehicle: saline with Tween-80 96 % of control

CCOCCOCCOCCCNCCCN1CC1
inactive: dose: 88.0 mg/kg/injection, schedule: Q01DX009 (ip), vehicle: saline 117 % of control | [1] 96 % of control | dose: 300.0 mg/kg/injection, schedule: Q01DX001 (ip), vehicle: saline 116 % of control

Cc1cc(OCCOC(=O)Nc2ccccc2F)ccc1Cl
inactive: dose: 100.0 mg/kg/injection, schedule: Q01DX009 (ip), vehicle: Klucel (hydroxypropylcellulose) (HPC) 107 % of control | dose: 200.0 mg/kg/injection, schedule: Q01DX009 (ip), vehicle: Klucel (hydroxypropylcellulose) (HPC) 102 % of control | dose: 400.0 mg/kg/injection, schedule: Q01DX009 (ip), vehicle: Klucel (hydroxypropylcellulose) (HPC) 112 % of control

CC(O)(C#CC(C)(O)c1ccccc1)c1ccccc1 (centres undefined)
inactive: dose: 100.0 mg/kg/injection, schedule: Q01DX009 (ip), vehicle: saline with Tween-80 97 % of control | dose: 200.0 mg/kg/injection, schedule: Q01DX009 (ip), vehicle: saline with Tween-80 98 % of control | dose: 400.0 mg/kg/injection, schedule: Q01DX009 (ip), vehicle: saline with Tween-80 113 % of control

CC1CCC(C(C)C)C(NCc2cc(Br)cc(Br)c2O)C1 (centres undefined)
inactive: dose: 100.0 mg/kg/injection, schedule: Q04DX003 (ip), vehicle: Klucel (hydroxypropylcellulose) (HPC) 98 % of control | dose: 200.0 mg/kg/injection, schedule: Q04DX003 (ip), vehicle: Klucel (hydroxypropylcellulose) (HPC) 92 % of control | dose: 400.0 mg/kg/injection, schedule: Q04DX003 (ip), vehicle: Klucel (hydroxypropylcellulose) (HPC) 98 % of control

O=C1NC(c2ccccc2)C(c2ccccc2)N1 (centres undefined)
inactive: [2] 97 % of control | [3] 100 % of control | [4] 97 % of control

O=C1c2ccccc2C(=O)C1N=Nc1ccccc1
inactive: dose: 50.0 mg/kg/injection, schedule: Q01DX001 (ip), vehicle: saline 102 % of control | [2] 100 % of control | [3] 94 % of control | [4] 96 % of control

CC1OC(O[C@@H]2C=C3CC[C@@H]4[C@H](CC[C@]5(C)[C@@H](c6ccc(=O)oc6)CC[C@]45O)[C@@]3(C)CC2)C(O)C(O)C1O (some centres undefined)
inactive: dose: 10.0 mg/kg/injection, schedule: Q01DX001 (ip), vehicle: saline 101 % of control

C=C(Cl)COC1CCS(=O)(=O)C1 (centres undefined)
inactive: dose: 6.25 mg/kg/injection, schedule: Q01DX009 (ip), vehicle: saline with Tween-80 94 % of control and 101 % of control | dose: 12.5 mg/kg/injection, schedule: Q01DX009 (ip), vehicle: saline with Tween-80 95 % of control and 97 % of control | dose: 25.0 mg/kg/injection, schedule: Q01DX009 (ip), vehicle: saline with Tween-80 100 % of control and 122 % of control | dose: 50.0 mg/kg/injection, schedule: Q01DX009 (ip), vehicle: saline with Tween-80 97 % of control

NC(=O)c1ccc(OCc2cnc3nc(N)nc(N)c3n2)cc1
inactive: dose: 20.0 mg/kg/injection, schedule: Q01DX009 (ip), vehicle: Klucel (hydroxypropylcellulose) (HPC) 98 % of control | dose: 40.0 mg/kg/injection, schedule: Q01DX009 (ip), vehicle: Klucel (hydroxypropylcellulose) (HPC) 95 % of control | dose: 80.0 mg/kg/injection, schedule: Q01DX009 (ip), vehicle: Klucel (hydroxypropylcellulose) (HPC) 109 % of control
